Reference: US12721823B2, “Methods and compositions for treatment of low circulating testosterone conditions” (University of Florida Research Foundation, Inc., priority 2021, dated 2026)

Key:
Format in all cases: in vivo, rat
[1] = tested on: KCC2; experiment: Immunofluorescence of cell surface KCC2 expression in the PVN of the hypothalamus; conditions: G1 male rats; 1 h after last exposure on P60; vs control
Protocol: Rats were anesthetized with sevoflurane and transcardially perfused with saline, followed by 4% paraformaldehyde (PFA) in 0.1 M phosphate buffer. The brains were collected and fixed in the 4% PFA overnight and then dehydrated in 30% sucrose solution in PBS at 4° C. for 2 days. The brains were cut into 18-um-thick coronal sections using a cryostat. After blocking with 10% norm goat serum for 1 h at room temperature, the slices were incubated with the primary antibody (rabbit anti-KCC2, 1:500; MilliporeSigma, Burlington, MA) in 10% norm goat serum at 4° C. overnight. After washing with PBS for 3×5 min, the slices were exposed to the secondary antibody, Alexafluor 549 goat anti-rabbit (Invitrogen, Carlsbad, CA). […] The immunofluorescence intensity of the KCC2-immunoreactive cells was measured using ImageJ software [National Institutes of Health (NIH)]. Three images from the PVN of the hypothalamus of each animal were taken and the average intensity values were calculated to use for statistical analysis. […] (FIGS. 2C-2F) Representative confocal images and quantitative analysis of the KCC2 immunoreactivity in the paraventricular nucleus (PVN) of the hypothalamus of the control and sevoflurane-exposed male (FIGS. 2C, 2E) and female (FIGS. 2D, 2F) rats. […]

[2] = tested on: Sprague-Dawley rats; experiment: Serum FSH, LH, testosterone (Tn), estradiol (E2) by ELISA and testis weight
From the text: Sixty-four G1 rats (32 control and 32 sevoflurane exposed) and 122 G2 rats, which were not exposed to sevoflurane anesthesia and were subjected to animal facility rearing only, were studied. The G1 rats were sequentially evaluated in the EPM starting on ~P125, PPI of the acoustic startle response on ~P135 and MWM starting ~on P145 (FIG. 1). One half of these animals were sacrificed on ≥P160 to collect trunk blood, brain and testis and ovarian tissues for further analyses. The rest of these animals were physically restrained for 30 min on ≥P160 to measure corticosterone responses, followed by collection of tissue samples (as above) for further analyses. The G2 rats were evaluated in the EPM starting on P60 and PPI of startle on P70 (FIG. 1). One half of these animals were sacrificed on ≥P95 to collect trunk blood and brain tissue samples for further analyses, and the rest of these animals were tested for the corticosterone responses to physical restraint for 30 min on ≥P95 before collecting the trunk blood and brain tissue samples. After decapitation, the trunk blood samples were collected and centrifuged at 4° C., 1000 g for 15 min, and then kept at -80° C. for hormone assays. The brain was removed from the skull onto ice pads. The hypothalamus was isolated by making an anterior cut at the level of the optic chiasm, a posterior coronal section anterior to the mammillary bodies, two sagittal cuts parallel to the lateral ventricles and a dorsal horizontal cut at the level of the anterior commissure, as described elsewhere.^19 The hippocampus was isolated from the respective blocks. All tissue samples were placed in vials filled with RNAlater solution (Invitrogen, Carlsbad, CA) and then stored at -80° C. Testis tissue was removed and washed with 0.9% saline before weighing. Sperm were isolated from the caudal epididymis of adult males into PBS with 1% BSA at 37° C. using a swim-up assay. After settling for 30 min, sperm-containing supernatant was centrifuged for 5 min at 4000 rpm. Sperm pellets were stored at -80° C. After separation from the adipose tissues, ovaries were stored at -80° C. Hormone analyses in serum samples isolated from G1 and G2 rats were performed using commercially available kits according to the manufacturer's instructions. Serum concentrations of FSH (CSB-E06869r) and LH (CSB-E12654r) were quantified using ELISA kits (CUSABIO TECHNOLOGY LLC, Houston, TX, USA). Serum Tn and E2 concentrations were measured using ELISA kits (582701, Cayman Chemical Company, Ann Arbor, MI, USA and E[…]-100, Calbiotech, Spring Valley, CA, USA, respectively).

[3] = tested on: Sprague-Dawley F0 male rats; experiment: Long-term serum testosterone after SEVO with or without surgery and TBI; conditions: young adult F0 male rats exposed to SEVO; FIG. 11A
Protocol: The Sprague-Dawley F0 male rats in the TBI group had SEVO exposure for 40 min to conduct a craniectomy and injury hub implantation on P60. After 60 min of recovery, they were reanesthetized with SEVO for 3 min to induce moderate TBI using a midline fluid percussion injury (FPI) model. The TBI+SEVO group had additional exposure to SEVO for 3 h on P62, P64, and P66. These subsequent exposures to SEVO, which may be needed to treat accompanying conditions, such as orthopedic, abdominal, or thoracic injuries, were used to study whether the effects of SEVO, surgery, and TBI interact to induce their effects. The Sham group had all exposures to SEVO and craniectomy but not TBI. The SEVO-SEVO group had all exposures to SEVO only. The control group had none of these procedures, except being placed in a new cage for an equivalent duration and number of times. A subset of F0 male rats was sacrificed on P66 1 h after the last exposure to SEVO for 3 h or at equivalent timepoints to collect blood to study acute neuroendocrine effects (FIG. 11A). The serum corticosterone levels before and after physical restraint for 30 min were measured ion P140. Ten days after completing the in vivo studies, the same rats were sacrificed and trunk blood samples were collected to measure serum levels of testosterone.

[4] = G2 males, parental exposure to sevoflurane

**Q.** For `FCOC(C(F)(F)F)C(F)(F)F` [sevoflurane, 1,1,1,3,3,3-hexafluoro-2-(fluoromethoxy)propane], which “cell surface KCC2 expression (KCC2 density) in the PVN of the hypothalamus” value [1] is on record?
**A.** reductions in KCC2 density

**Q.** And the “serum levels of E2 (estradiol)” value ([2]; G1 female rats, vs control)?
**A.** not different

**Q.** What about the “serum levels of FSH” value ([2]; G1 female rats, vs control) of the same molecule?
**A.** no significant treatment effects

**Q.** And the “serum levels of LH” value ([2]; G1 female rats, vs control)?
**A.** no significant treatment effects

**Q.** What about the “serum levels of Tn (testosterone)” value ([2]; G1 female rats, vs control) of the same molecule?
**A.** not different

**Q.** What about the “serum levels of Tn (testosterone)” value ([2]; G1 male rats, more than 3 months after sevoflurane exposure, vs control) of the same molecule?
**A.** significantly increased

**Q.** What about the “serum levels of FSH” value ([2]; G1 male rats, vs control) of the same molecule?
**A.** not different

**Q.** What about the “serum levels of LH” value ([2]; G1 male rats, vs control) of the same molecule?
**A.** increased

**Q.** And the testis weight ([2]; G1 male rats, vs control)?
**A.** significantly reduced

**Q.** And the “serum levels of Tn” value [2, 4]?
**A.** no significant treatment effects

**Q.** What about the testis weight [2, 4] of the same molecule?
**A.** no significant treatment effects

**Q.** What about the “serum levels of testosterone” value [3] of the same molecule?
**A.** long-term increase
